Assay results published in article PMC12120661, “Synthesis and Biological Evaluation of 4‑(4-Nitrophenyl)‑1H‑1,2,3-triazole Derivatives as Antitrypanosomal Agents” (ACS Omega, 2025).

Assays:
[1] = tested on: T. cruzi intracellular amastigotes (Colombian strain) in C2C12 cells; test: Antiamastigote activity, infection index, treatment after infection, C2C12; format: cell-based, Trypanosoma cruzi; details: for IC50: Trypanosoma cruzi, infected C2C12, 48 h treatment after infection; for selective index C2C12: CC50/IC50, C2C12, treatment after infection
Experimental: (§1) Considering the dynamics of T. cruzi infection in humans, characterized by an increase in parasitic load through intracellular replication of amastigote forms in various cell types, we evaluated the action of the compounds in LLC-MK2 (epithelial cells) and C2C12 (myoblasts) using an in vitro infection model.
(§2) The antiamastigote activity was assessed by calculating the infection index, defined as the percentage of infected cells multiplied by the mean number of amastigotes per cell. Noninfected control cells were subjected to identical treatment conditions to evaluate the cytotoxicity of the compounds (CC50). This comprehensive approach allowed for the simultaneous assessment of antiparasitic efficacy and compound-induced cytotoxicity, offering valuable insights into their therapeutic potential.
(§3) In the infection plate each well was added 50 μL of cold methanol for cell fixation. The plate was kept at −20 °C for 1 h. After this period, the wells were blocked with 50 μL of PBS 1X-Saponin 0.1 + 10% rabbit serum for 10 min at room temperature. Following, the wells were washed four times with PBS 1X-Saponin 0.1% and 50 μL of the same solution was added to each well, incubating for 20 min at room temperature. Subsequently, 50 μL of PBS 1X-Saponin 0.1% + anti-T. cruzi antibody (from serum of infected patients) at a 1:10 dilution was added, and the plate was incubated for 1 h at room temperature. The wells were then washed four times with PBS 1X-Saponin 0.1%, and 50 μL of PBS 1X-Saponin 0.1% + antihuman IgG-FITC at a 1:200 dilution was added. The plate was incubated wrapped in aluminum foil for 30 min. After incubation, the plate was washed four times with PBS 1X-Saponin 0.1%, and 50 μL of PBS 1X was added to all wells after the final wash. For nuclear staining, the plate, already stained with FITC, was washed three times with PBS 1X, and 200 μL of PBS 1X + 1 μL of iodide per well was added. After staining, the wells were washed again, and 100 μL of PBS 1X was added before imaging.
(§4) The plate was analyzed in the EVOS fluorescence microscope for image acquisition and fluorescence identification, in which the anti-IgG-FITC stains parasite′s membrane in green and iodide stains nuclei in red. On each condition of treatment, 200 cells of 3 wells were evaluated as to the number of infected cells and the number of parasites per cell for calculating the index of infection the IC50 were calculated by Nonlinear regression curves (log[inhibitor] vs normalized response). Selective index was calculated by dividing CC50 per IC50.

[2] = tested on: T. cruzi nitroreductase (TcNTR72); test: T. cruzi nitroreductase activity assay (NADH oxidation); details: 50 μM NADH, 25 °C; for Kobs (12.5 μM): compound 12.5 μM; for Kobs (25 μM): compound 25 μM; for Kobs (50 μM): compound 50 μM; for Kobs (100 μM): compound 100 μM
Experimental: TcNTR72 was expressed, purified, and its activity was tested following previously described protocol. […] This mixture was incubated at room temperature for 5 min. […] All assays were performed in triplicate for each measurement and for each concentration. Benznidazole was used as a control.

[3] = Cellular viability (MTT), noninfected LLC-MK2; format: cell-based; details: rhesus monkey, noninfected LLC-MK2 epithelial cells; noninfected LLC-MK2, Table 2 (treatment after infection); read-out: CC50 non infected MK2
Experimental: as §2
(§5) Following 24 h of treatment, 10 μL of 5 mg/mL of MTT (3-(4,5-dimethylthiazol-2-yl)-2,5-diphenyltetrazolium bromide) was added per well, and absorbance was evaluated in the Eon Microplate Spectrophotometer Reader (BioTek) at 570–690 nm. CC50 were calculated by Nonlinear regression curves (log[inhibitor] vs normalized response).

[4] = tested on: T. cruzi intracellular amastigotes (Colombian strain) in LLC-MK2 cells; test: Antiamastigote activity, infection index, treatment after infection, LLC-MK2; format: cell-based, Trypanosoma cruzi; details: for IC50: infected LLC-MK2, 48 h treatment after infection; for selective index MK2: CC50/IC50, LLC-MK2, treatment after infection; for selectivity indices: stated in text across LLC-MK2 and C2C12, treatment after infection
Experimental: as §1, §2, §3, §4

[5] = Cellular viability (MTT), noninfected C2C12; format: cell-based, murine; details: mouse, noninfected C2C12 myoblast cells; noninfected C2C12, Table 2 (treatment after infection); read-out: CC50 non infected C2C12
Experimental: as §2
(§6) The LLC-MK2 (ATCC CCL-7) cell line of epithelial origin, and C2C12 (ATCC CRL-1772) myoblast cells, derived from murine myoblasts, were maintained in Roswell Park Memorial Institute-RPMI 1640 medium supplemented with L-glutamine, 25 mM HEPES (Corning), 10% (v/v) fetal bovine serum (FBS), and gentamicin (1 μL/mL). […] Once the cells reached 80% confluence, were detached using Trypsin-EDTA and prepared in the subsequent experiments.
as §5

[6] = tested on: T. cruzi Tulahuen CL2 β-galactosidase strain; test: Antitrypanosomal screening, anti-T. cruzi (trypomastigote) activity, CPRG photometric method; format: cell-based; details: Trypanosoma cruzi; Tulahuen CL2 β-galactosidase strain on MRC-5SV2; values in parentheses mean ± SEM of two experiments
Experimental: A preliminary assay was conducted to evaluate the analogs’ in vitro cytotoxicity and antitrypanosomatid activity against T. cruzi Tulahuen strain (Table ). […] However, the promising results of analog 16 encouraged us to conduct more in-depth studies on this compound.
Anti-parasitic assays were conducted following established protocols outlined in earlier literature. In brief, for assessing anti-T. cruzi activity, the Tulahuen CL2 β-galactosidase strain (nifurtimox-sensitive) was employed and maintained on MRC-5SV2 (human lung fibroblast). A total of 4 × 10^3 cells were infected with 4 × 10^4 parasites per well. The synthesized analogs were tested at concentrations ranging from 1.56 to 50.00 μM. Parasite burdens were evaluated after the addition of the substrate CPRG (chlorophenol red ß-D-galactopyranoside). The change in color was measured spectrophotometrically at 540 nm after 4 h of incubation at 37°C. In all assays, parasite growth was compared to untreated-infected controls (100% growth) and noninfected controls (0% growth). Results were expressed as the percentage of parasite reduction at different drug concentrations and used to calculate IC50 values from the dose–response curves.

[7] = tested on: trypomastigotes forms of T. cruzi Tulahuen strain (LacZ); set-up: method as in de Andrade et al., 2015; details: previous work of the group; ref de Andrade et al., 2015; read-out: IC50 against trypomastigotes forms of T. cruzi Tulahuen strain (LacZ); cited from earlier work
Solubility observations = details: 2.000 to 0.062 mM, 0.5% DMSO
LLC-MK2 cells = test: Cellular viability (MTT), noninfected LLC-MK2; format: cell-based; details: noninfected LLC-MK2, Table 3 (treatment previously to infection); read-out: CC50 non infected MK2
Experimental: as §2, §5

[8] = Cytotoxicity against primary mouse macrophages; format: cell-based; details: mouse, primary mouse macrophages (PMM)
Source text: 1 In Vitro Anti- T. cruzi (Trypomastigote) Activity and Cytotoxicity Assessment of Hit 1 Analogs ^a | column: PMM CC50 (μM)

[9] = tested on: T. cruzi amastigotes (Colombian strain) in pre-exposed C2C12 cells; test: Antiamastigote activity in pretreated (pre-exposed) C2C12 cells; format: cell-based, Trypanosoma cruzi; details: for selective index C2C12: CC50/IC50, C2C12 treated previously to infection; for IC50: Trypanosoma cruzi, C2C12 treated previously to infection
Experimental: (§7) After 24 h, the culture medium was removed and replaced with fresh medium containing cell-derived trypomastigotes (MOI 20:1, Colombian strain) overnight.
as §3, §4

C2C12 cells = test: Cellular viability (MTT), noninfected C2C12; format: cell-based, murine; details: noninfected C2C12, Table 3 (treatment previously to infection); read-out: CC50 non infected C2C12
Experimental: as §2, §6, §5

[10] = Preliminary cytotoxicity assay, resazurin; format: cell-based; details: MRC-5SV2 lung fibroblast cells; human MRC-5 cell line, 3 days incubation
Experimental: MRC-5SV2 cell cytotoxicity was assessed following the methodology outlined in earlier literature. Briefly, cells at a concentration of 1.5 × 10^5 cells/mL were cultured with compound dilutions at 37 °C and 5% CO2. Cell growth was compared to untreated-control wells (100% cell growth) and medium-control wells (0% cell growth). After 3 days of incubation, cell viability was fluorometrically assessed following the addition of 50-μL resazurin per well. Fluorescence was measured after 4 h at 37 °C (λex 550 nm, λem 590 nm). The results were expressed as the percentage reduction in cell growth/viability compared to control wells, and an IC50 value was determined.

[11] = tested on: T. cruzi amastigotes (Colombian strain) in pre-exposed LLC-MK2 cells; test: Antiamastigote activity in pretreated (pre-exposed) LLC-MK2 cells; format: cell-based, Trypanosoma cruzi; details: for selective index MK2: CC50/IC50, LLC-MK2 treated previously to infection; for IC50: Trypanosoma cruzi, LLC-MK2 treated previously to infection
Experimental: as §7, §3, §4

[12] = molecular target: T1, Recombinant trans-sialidase from T. cruzi (TcTS) (Trypanosoma cruzi, UniProt Q26966); test: Continuous fluorimetric TcTS inhibition (MuNANA hydrolysis); format: biochemical
T1 construct: A truncated recombinant TcTs, containing the enzyme’s catalytic N-terminal domain, was used; made in house
Experimental: Although the main reaction catalyzed by TcTS involves the transfer of host sialic acids to β-galactose acceptors found in parasite surface mucins, a residual hydrolase activity is also present and was utilized to screen a small library of TcTS inhibitors.
A truncated recombinant TcTs, containing the enzyme’s catalytic N-terminal domain, was used. The production and purification of TcTs were performed following previously described protocols. The continuous fluorimetric TcTS assay was conducted in 96-well plates containing phosphate buffer solution at pH 7.4 (25 μL), recombinant enzyme solution (25 μL) and inhibitor solution (25 μL). […] The enzyme activity was measured by calculating the slope of the curve for each concentration of the test compound. Pyridoxal phosphate was used as the inhibition control at a concentration of 1 mM. The IC50 value was determined using the log(inhibitor) vs normalized response–variable slope model in GraphPad Prism version 10.0.0 for Windows, GraphPad Software, Boston, Massachusetts (www.graphpad.com).

[13] = previous work of the group; cited from earlier work
[14] = Trypanosoma cruzi, LLC-MK2, 48 h

T1 sequence (Q26966 entry or part of it): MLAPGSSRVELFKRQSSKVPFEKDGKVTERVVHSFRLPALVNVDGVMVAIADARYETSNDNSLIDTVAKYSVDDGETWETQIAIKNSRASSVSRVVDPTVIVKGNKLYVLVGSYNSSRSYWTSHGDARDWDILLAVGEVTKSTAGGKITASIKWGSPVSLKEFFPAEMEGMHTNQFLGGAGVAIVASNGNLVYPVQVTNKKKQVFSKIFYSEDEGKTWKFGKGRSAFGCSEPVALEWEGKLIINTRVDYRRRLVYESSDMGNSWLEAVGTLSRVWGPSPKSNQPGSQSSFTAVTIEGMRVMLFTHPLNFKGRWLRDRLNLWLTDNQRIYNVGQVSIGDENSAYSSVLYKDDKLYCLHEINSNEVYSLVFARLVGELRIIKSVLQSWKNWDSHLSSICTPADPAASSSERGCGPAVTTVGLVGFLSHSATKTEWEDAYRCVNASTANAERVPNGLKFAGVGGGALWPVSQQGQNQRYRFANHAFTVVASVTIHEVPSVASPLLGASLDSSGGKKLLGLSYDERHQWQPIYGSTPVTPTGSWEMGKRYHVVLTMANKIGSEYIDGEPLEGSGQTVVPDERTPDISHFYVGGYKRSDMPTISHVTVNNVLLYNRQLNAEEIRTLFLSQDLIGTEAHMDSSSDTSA

Row | SMILES | IC50 [1] [µM] | Kobs (12.5 μM) [2] [s^–1] | Kobs (25 μM) [2] [s^–1] | Kobs (50 μM) [2] [s^–1] | Kobs (100 μM) [2] [s^–1] | CC50 at 24 h [3] [µM] | IC50 [4, 14] [µM] | CC50 at 24 h [5] [µM] | IC50 [6] [µM] | IC50 [7] [µM] | selective index C2C12 [1] | CC50 (LLC-MK2 cells) [µM] | selective index C2C12 [9] | IC50 [9] [µM] | selective index MK2 [4] | selectivity indices [4] | CC50 (C2C12 cells) [µM] | selective index MK2 [11] | IC50 [11] [µM] | also measured
1 | O=C(Cn1ccnc1[N+](=O)[O-])NCc1ccccc1 [BZN, reference compound] | 6 ± 1 | 0.13 ± 0.01 | 0.17 ± 0.05 | 0.32 ± 0.04 | 0.23 ± 0.07 | 46.9 | 1.43 ± 0.1 | 74.4 | 1.64 | 34 |  |  |  |  |  |  |  |  |  | IC50 [4]: 1.4 ± 0.1 µM
2 | CC(=O)OC[C@H]1O[C@@H](n2cc(-c3ccc([N+](=O)[O-])cc3)nn2)[C@H](OC(C)=O)[C@@H](OC(C)=O)[C@H]1OC(C)=O [Compound 16, (2R,3S,4S,5R,6R)-2-(Acetoxymethyl)-6-(4-(4-nitrophenyl)-1H-1,2,3-triazol-1-yl)tetrahydro-2H-pyran-3,4,5-triyl Triacetate] | 0.13 ± 0.01 | 0.02 ± 0.02 | 0.06 ± 0.01 | 0.07 ± 0.01 | 0.07 ± 0.01 | > 80 | 0.16 ± 0.02 | > 80 | 6 |  | 621.1 | > 80 | 141.5 | 0.56 ± 0.09 | 484.3 | exceeding 400 | > 80 | 124.9 | 0.6 ± 0.2 | solubility in the TcTS assay medium (Solubility observations): low solubility in the medium; CC50 [8]: > 50 µM; CC50 at 3 days [10]: > 50 µM
3 | O=[N+]([O-])c1ccc(-c2cn([C@@H]3O[C@H](CO)[C@H](O)[C@H](O)[C@H]3O)nn2)cc1 [Compound 19, (2R,3R,4S,5R,6R)-2-(Hydroxymethyl)-6-(4-(4-nitrophenyl)-1H-1,2,3-triazol-1-yl)tetrahydro-2H-pyran-3,4,5-triol] | 0.11 ± 0.02 | 0.03 ± 0.01 | 0.03 ± 0.01 | 0.04 ± 0.02 | 0.04 ± 0.01 | > 80 | 0.1 ± 0.04 | > 80 |  |  | 677.4 | > 80 | 115.6 | 0.7 ± 0.3 | 782.8 | exceeding 400 | > 80 | 39.4 | 2 ± 0.2 | IC50 [12]: 1100 ± 100 µM
4 | O=C(Cn1cc(-c2ccc([N+](=O)[O-])cc2)nn1)NCc1ccccc1 [hit 1] |  |  |  |  |  |  |  |  |  | 7 |  |  |  |  |  |  |  |  |  | solubility in water [13]: low solubility in water
